Blank lines part the entries; values can stand above or below the molecule they belong to.
Experiments:
[1] = Oral bioavailability in rat at 56 or 168 mg/kg/day administered through gavage for 14 consecutive days by HPLC analysis; type: ADME, organism-based; conditions: in vivo
[2] = target: T1, NAD-dependent protein deacetylase sirtuin-1 (Homo sapiens, UniProt Q96EB6); experiment: Inhibition of recombinant SIRT1 (unknown origin) assessed as deacetylation activity using acetylated p53 as substrate measured after 2 hrs by Fluor de Lys assay
T1 sequence (Q96EB6 whole entry): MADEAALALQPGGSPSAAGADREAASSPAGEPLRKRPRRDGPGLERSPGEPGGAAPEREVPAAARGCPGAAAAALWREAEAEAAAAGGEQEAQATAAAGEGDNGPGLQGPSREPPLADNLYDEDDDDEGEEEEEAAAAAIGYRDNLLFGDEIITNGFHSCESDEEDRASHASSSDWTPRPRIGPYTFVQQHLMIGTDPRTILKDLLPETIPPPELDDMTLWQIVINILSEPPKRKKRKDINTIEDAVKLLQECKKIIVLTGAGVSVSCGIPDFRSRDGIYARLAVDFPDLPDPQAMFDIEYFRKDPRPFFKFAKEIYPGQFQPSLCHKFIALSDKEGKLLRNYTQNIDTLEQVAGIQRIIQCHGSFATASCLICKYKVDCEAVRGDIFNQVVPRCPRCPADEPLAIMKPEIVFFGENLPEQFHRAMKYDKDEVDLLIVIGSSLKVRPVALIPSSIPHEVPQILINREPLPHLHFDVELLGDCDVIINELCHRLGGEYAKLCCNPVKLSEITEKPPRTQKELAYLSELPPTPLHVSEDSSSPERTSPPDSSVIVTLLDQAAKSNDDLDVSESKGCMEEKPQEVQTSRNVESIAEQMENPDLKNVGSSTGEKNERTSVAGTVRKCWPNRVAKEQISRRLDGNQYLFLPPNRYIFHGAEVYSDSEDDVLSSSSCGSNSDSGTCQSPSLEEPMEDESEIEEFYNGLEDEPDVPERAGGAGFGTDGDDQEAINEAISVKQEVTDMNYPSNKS

[3] = target: T1, NAD-dependent protein deacetylase sirtuin-1; experiment: Inhibition of SIRT1 (unknown origin) using acetylated lysine as substrate by Fluor de Lys assay
[4] = Cytotoxicity in human LNCAP cells assessed as growth inhibition measured after 48 hrs by MTT assay; type: functional
[5] = Cytotoxicity in human Caco2 cells assessed as growth inhibition measured after 48 hrs by MTT assay; type: functional; conditions: Caco-2, 48 h
[6] = Cytotoxicity in HEK293 cells assessed as growth inhibition measured after 48 hrs by MTT assay; type: toxicity, cell-based; conditions: human
[7] = Cytotoxicity in human U937 cells assessed as growth inhibition measured after 48 hrs by MTT assay; type: functional; conditions: U-937, 48 h
[8] = target: T1, NAD-dependent protein deacetylase sirtuin-1; experiment: Inhibition of human SIRT1 assessed as deacetylation activity preincubated with protein followed by addition of AMC-tagged Arg-His-Lys-Lys(Ac) (379 to 382 residues) as substrate measured after 45 mins in presence of NAD+ by fluorescence assay
[9] = Cytotoxicity in human MDA-MB-231 cells assessed as growth inhibition measured after 48 hrs by MTT assay; type: functional; conditions: MDA-MB-231, 48 h
[10] = target: T2, NAD-dependent protein deacetylase sirtuin-2 (Homo sapiens, UniProt Q8IXJ6); experiment: Inhibition of full-length human N-terminal His6-tagged SIRT2 expressed in Escherichia coli BL21 (DE3) assessed as inhibition of deacetylase activity using ZMAL as substrate measured after 4 hrs by Fluor de Lys assay
T2 sequence (Q8IXJ6 whole entry): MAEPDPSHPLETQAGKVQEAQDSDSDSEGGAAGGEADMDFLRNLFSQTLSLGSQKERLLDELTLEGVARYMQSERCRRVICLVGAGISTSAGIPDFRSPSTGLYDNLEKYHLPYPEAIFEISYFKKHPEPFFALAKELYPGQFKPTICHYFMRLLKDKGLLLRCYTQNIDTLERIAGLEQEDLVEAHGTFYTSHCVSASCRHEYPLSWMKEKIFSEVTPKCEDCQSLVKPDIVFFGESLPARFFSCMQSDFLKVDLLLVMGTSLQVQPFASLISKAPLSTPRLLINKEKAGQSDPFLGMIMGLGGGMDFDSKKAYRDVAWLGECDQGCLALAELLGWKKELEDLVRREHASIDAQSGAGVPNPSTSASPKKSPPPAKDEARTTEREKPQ

[11] = target: T1, NAD-dependent protein deacetylase sirtuin-1; experiment: Inhibition of full-length human N-terminal GST-tagged SIRT1 expressed in Escherichia coli BL21 (DE3) assessed as inhibition of deacetylase activity using ZMAL as substrate measured after 4 hrs by Fluor de Lys assay
[12] = target: T1, NAD-dependent protein deacetylase sirtuin-1; experiment: Inhibition of recombinant human GST-tagged SIRT1 overexpressed in Escherichia coli DH5alpha assessed as deacetylation activity using [3H]-MPSDKTIGG as substrate measured after overnight incubation by liquid scintillation counting method
[13] = target: T2, NAD-dependent protein deacetylase sirtuin-2; experiment: Inhibition of recombinant human GST-tagged SIRT2 overexpressed in Escherichia coli DH5alpha assessed as deacetylation activity using [3H]-MPSDKTIGG as substrate measured after overnight incubation by liquid scintillation counting method
[14] = target: T1, NAD-dependent protein deacetylase sirtuin-1; experiment: Inhibition of recombinant human SIRT1 (193 to 747 residues) expressed in Escherichia coli BL21 (DE3) using AMC-labeled p53-derived acetylated lysine as substrate in presence of NAD+ by HTS assay
[15] = target: T1, NAD-dependent protein deacetylase sirtuin-1; experiment: Activation of recombinant human SIRT1 assessed as increase in deacetylation of Fluor de Lys-SIRT1-specific substrate after 2 hrs by HTS assay
[16] = target: T3, NAD-dependent protein deacetylase sirtuin-1 (Homo sapiens) (UniProt Q96EB6); experiment: Activation of recombinant human SIRT1 using TPE-GK(Ac)YDD as substrate at 50 uM by fluorescence assay relative to control
T3 sequence (whole entry): T1 sequence (Q96EB6 whole entry)

[17] = target: T3, NAD-dependent protein deacetylase sirtuin-1 (Homo sapiens); experiment: Activation of recombinant human SIRT1 using TPE-GK(Ac)YDD as substrate at 1 to 50 uM by fluorescence assay relative to control
[18] = target: T1, NAD-dependent protein deacetylase sirtuin-1; experiment: Inhibition of human SIRT1 using biotinylated peptide with an acetylated FLAG sequence as substrate measured after 3 hr in presence of NAD+ by TR-FRET assay
[19] = target: T2, NAD-dependent protein deacetylase sirtuin-2; experiment: Inhibition of human SIRT2 using biotin labeled histone H4 peptide with an acetylated lysine 4 as substrate measured after 1 hr by luminescence analysis

- bioavailability [1]: 80%
Compound: COc1cc(/C=C/c2ccc(O)cc2)cc(OC)c1 [PTEROSTILBENE]

- IC50 [2]: 2800 nM
Compound: COc1ccc2[nH]c3c(c2c1)CCCC3C(=O)O (configuration not stated)

- IC50 [3]: > 100000 nM
Compound: NC(=O)c1cccc(Nc2ccccc2)c1

- IC50 [8]: 16400 nM
Compound: N#CC1=C(N)NC(SCC(=O)c2ccc(O)c(O)c2)=C(C#N)C1=C1C=CC(=O)C=C1
- GI50 [4]: < 1000 nM
- GI50 [5]: < 1000 nM
- GI50 at 48 h [6]: < 1000 nM
- GI50 [7]: < 1000 nM
- GI50 [9]: < 1000 nM

- IC50 [8]: 32000 nM
Compound: Oc1ccccc1-c1nc2ccc(Cl)cn2c1NCc1ccc2c(c1)OCO2
- GI50 [4]: < 1000 nM
- GI50 [5]: < 1000 nM
- GI50 at 48 h [6]: < 1000 nM
- GI50 [7]: < 1000 nM
- GI50 [9]: < 1000 nM

- IC50 [14]: 1080 nM
Compound: Fc1cccc(-n2cc(CSC(=S)N3CCN(C(=S)SCc4cn(-c5ccccc5F)nn4)CC3)nn2)c1

- IC50 [2]: 149 nM
Compound: CN(C)/C=N/C(=O)C1CCCc2c1[nH]c1ccc(Cl)cc21 (configuration not stated)

Second part, the molecule before the results:

Compound: Nc1cc(NC(=O)Nc2cccc(C(=O)Nc3cccc(C(=O)Nc4ccc(S(=O)(=O)O)c5cc(S(=O)(=O)O)cc(S(=O)(=O)O)c45)c3)c2)cc(C(=O)Nc2cccc(C(=O)Nc3ccc(S(=O)(=O)O)c4cc(S(=O)(=O)O)cc(S(=O)(=O)O)c34)c2)c1
- IC50 [10]: 2260 nM
- IC50 [11]: 93 nM

Compound: CC(C)=CCC[C@]1(C)[C@@H](CC=C(C)C)C[C@]2(CC=C(C)C)C(=O)C(CC=C(C)C)=C(O)[C@@]1(C(=O)C(C)C)C2=O
- IC50 [12]: 15000 nM
- IC50 [13]: 28000 nM

Compound: O=C(O)c1cccc(NC(=O)c2ccc(N3C(=O)c4ccc(C(=O)Nc5cccc(C(=O)O)c5)cc4C3=O)cc2)c1
- GI50 [4]: < 1000 nM
- GI50 [5]: < 1000 nM
- GI50 at 48 h [6]: < 1000 nM
- GI50 [7]: < 1000 nM
- GI50 [9]: < 1000 nM

Compound: COCCCn1c(N)c(C(=O)NC2CCCC2)c2nc3ccccc3nc21
- EC50 [15]: < 1000 nM

Compound: COc1cc2c(c(OC)c1OC)-c1c(cc(OC)c(OC)c1OC)C[C@H](C)[C@H](C)C2
- Activity [16]: 28%

Compound: CC(C)=CCC[C@](C)(O[C@@H]1O[C@H](CO[C@@H]2OC[C@H](O)[C@H](O)[C@H]2O)[C@@H](O)[C@H](O)[C@H]1O)[C@H]1CC[C@]2(C)[C@@H]1[C@H](O)C[C@@H]1[C@@]3(C)CC[C@H](O[C@@H]4O[C@H](CO)[C@@H](O)[C@H](O)[C@H]4O[C@@H]4O[C@H](CO)[C@@H](O)[C@H](O)[C@H]4O)C(C)(C)[C@@H]3CC[C@]12C
- Activity [17]: 8 to 152%

Compound: Cc1ccc(-c2nc3c(=O)n(C)c(=O)nc-3n(C)n2)cc1
- IC50 [18]: 110 nM
- IC50 [19]: > 100000 nM

Compound: CC(C)=CCC[C@](C)(O[C@@H]1O[C@H](CO)[C@@H](O)[C@H](O)[C@H]1O)[C@H]1CC[C@]2(C)[C@@H]1[C@H](O)C[C@@H]1[C@@]3(C)CC[C@H](O)C(C)(C)[C@@H]3[C@@H](O)C[C@]12C
- Activity [16]: 28%
